Experimental data published in ChEMBL document CHEMBL1129886, “Novel indole containing thiazolidinedione derivatives as potent euglycemic and hypolipidaemic agents” (1997).

Key:
Type in all cases: functional
[1] = system: Mus musculus; test: Percentage reduction in random blood sugar in mice measured on 0th and 6th day at a dose of 200 mg/kg peroral administration; conditions: route oral
[2] = system: Mus musculus; test: Percentage reduction in random blood sugar in mice measured on 0th and 9th day at a dose of 200 mg/kg peroral administration; conditions: route oral
[3] = system: Mus musculus; test: Percentage reduction in random blood sugar in mice measured on 0th and 3rd day at a dose of 200 mg/kg peroral administration; conditions: route oral
[4] = system: Mus musculus; test: Percentage reduction in triglyceride measured on 0 and 9th day at a dose of 100 mg/kg
[5] = system: Mus musculus; test: Percentage reduction in AUC determined Glucose tolerance test in 18 h fasted animals after feeding 3 g/kg of glucose at a dose of 200 mg/kg peroral administration; conditions: route oral
[6] = system: Mus musculus; test: Percentage reduction in triglyceride measured on 0 and 9th day at a dose of 200 mg/kg

NC(Cc1cn(CCOc2ccc(/C=C3\SC(=O)NC3=O)cc2)c2ccccc12)C(=O)O (stereo not given)
Reduction in RBS [1]: 29%
Reduction in RBS [2]: 0%
Reduction in RBS [3]: 0%
Reduction in TG [4]: 64%

O=C1NC(=O)/C(=C/c2ccc(OCCn3c4ccccc4c4ccccc43)cc2)S1
Reduction in RBS [1]: 0%
Reduction in RBS [2]: 0%
Reduction in RBS [3]: 0%
Reduction in TG [4]: 44%

O=C1NC(=O)C(Cc2ccc(OCCn3c4ccccc4c4ccccc43)cc2)S1 (stereo not given)
Reduction in RBS [1]: 0%
Reduction in RBS [2]: 0%
Reduction in RBS [3]: 0%
Reduction in TG [4]: 21%

O=C1NC(=O)/C(=C/c2ccc(OCCn3ccc4ccccc43)cc2)S1
Reduction in AUC [5]: 15%
Reduction in TG [6]: 37%
Reduction in RBS [1]: 40%
Reduction in RBS [2]: 33%
Reduction in RBS [3]: 27%

O=C1NC(=O)C(Cc2ccc(OCCn3ccc4ccccc43)cc2)S1 (stereo not given)
Reduction in AUC [5]: 55%
Reduction in TG [6]: 77%
Reduction in RBS [1]: 48%
Reduction in RBS [2]: 74%
Reduction in RBS [3]: 64%

O=C1NC(=O)/C(=C/c2ccc(OCCn3c(C(=O)O)cc4ccccc43)cc2)S1
Reduction in TG [6]: 0%
Reduction in RBS [1]: 39%
Reduction in RBS [2]: 12%
Reduction in RBS [3]: 50%

O=C1NC(=O)/C(=C/c2ccc(OCCn3cnc4ccccc43)cc2)S1
Reduction in TG [6]: 76%
Reduction in RBS [1]: 31%
Reduction in RBS [2]: 33%
Reduction in RBS [3]: 22%

Cc1c(C)c2c(c(C)c1O)CCC(C)(COc1ccc(CC3SC(=O)NC3=O)cc1)O2 (stereo not given) [TROGLITAZONE]
Reduction in AUC [5]: 20%
Reduction in TG [6]: 50%
Reduction in RBS [1]: 16%
Reduction in RBS [2]: 24%
Reduction in RBS [3]: 14%
